The test system of series [1] is T. gondii tachyzoites (RH strain, clone 2F1). The experiment in a line: microbe, parasite or virus in culture. It is filed as cell-based, Toxoplasma gondii. Conditions: for EC50: Toxoplasma gondii, 72 h, read-out: EC50 ± SD against T. gondii tachyzoites.
Series [2] can be described thus: in vitro. Conditions: human.
Where [3] appears, read: CC50 HFF cells/EC50 T. gondii ratio.
The mark [4] stands for this setting: RH-2F1 tachyzoites in HFF, β-galactosidase readout, ± SD of two independent experiments.

Read-outs that look alike come from different tables or passages of the source. Numbered stars: 1 amine (or outer) side, 2 acyl side, 3 side chain; on linkers, the order of the positions; unused ones are H or OH. Bridge positions count the residues as written; N and C are the ends. Square brackets hold non-standard residues; d marks the D form. Peptide text beside a SMILES is read from it. * marks the point of attachment. pTerphenylCO(4''-OnC5H11) = CCCCCOc1ccc(-c2ccc(-c3ccc(C(=O)*)cc3)cc2)cc1; Orn(4R-OH,5R-OH) = O=C([C@H](C[C@@H](O)[C@@H](O)N[*:3])N[*:1])[*:2]; hTyr(3S-OH,4S-OH) = N[C@H](C(=O)O)[C@H](O)[C@@H](O)c1ccc(O)cc1; Pro(3S-OH,4S-Me) = C[C@H]1CN[C@H](C(=O)O)[C@H]1O; Hyp = O=C(O)[C@@H]1C[C@@H](O)CN1

By EC50 is commonly meant the concentration giving half of the maximal effect. Consider `Nc1nc(Nc2ccc3c(c2)CC[C@@H](N2CCCC2)CC3)nn1-c1cc2c(nn1)-c1ccccc1CCC2` [Compound 2, Bemcentinib], for which the “Selectivity Index (SI)” value in series [1] (setting [3]) turned out to be 83. Further, the EC50 in series [1] (setting [4]) is 0.38 ± 0.19 µM. In series [2], this compound had a CC50 at 72 h of 31.6 ± 5.52 µM.

As to `CCOc1ccc(Cc2nccc3cc(OCC)c(OCC)cc23)cc1OCC` [Compound 3, Ethaverine], in series [1], the “Selectivity Index (SI)” value is on record as over 54. In addition, the EC50 in series [1] (setting [4]) stood at 0.92 ± 0.09 µM. Further, in series [2], the CC50 at 72 h was over 50 µM.

Regarding `CNC(=O)c1cc(Oc2ccc(NC(=O)Nc3ccc(Cl)c(C(F)(F)F)c3)c(F)c2)ccn1` [Compound 4, Regorafenib], the “Selectivity Index (SI)” value in series [1] (setting [3]) is reported as 29. Further, the EC50 in series [1] (setting [4]) was 0.4 ± 0.15 µM. The compound further had a CC50 at 72 h in series [2] of 11.6 ± 2.19 µM.

Take `CC(C)(C)Cn1c(N)nc2ccc(-c3[nH]c(C(C)(C)C)nc3-c3ccc(F)cc3)nc21` [Compound 7, LY 2228820]: in series [1] (setting [3]), the “Selectivity Index (SI)” value came out at 116. Besides, the EC50 in series [1] (setting [4]) was determined as 0.23 ± 0.01 µM. Further, in series [2], the CC50 was 26.6 ± 11.6 µM.

`COC(=O)C1=C(C)NC(C)=C(C(=O)OCCN2CCN(C(c3ccccc3)c3ccccc3)CC2)C1c1cccc([N+](=O)[O-])c1` (centres unmarked) [Compound 10, Manidipine]: the “Selectivity Index (SI)” value in series [1] (setting [3]) is listed as over 71. The EC50 in series [1] (setting [4]) stood at 0.7 ± 0.25 µM. Further, the CC50 at 72 h in series [2] is over 50 µM.

Turning to `COc1ccc2cc1Oc1ccc(cc1)C[C@H]1c3cc(c(OC)cc3CCN1C)Oc1c(OC)c(OC)cc3c1[C@H](C2)N(C)CC3` [Compound 13, Tetrandrine], the “Selectivity Index (SI)” value in series [1] was determined as 71. For the same compound, in series [1] (setting [4]), the EC50 is 0.49 ± 0.15 µM. In series [2], this compound had a CC50 of 34.7 ± 17 µM.

Turning to `CN(C)[C@@H]1C(O)=C(C(N)=O)C(=O)[C@@]2(O)C(O)=C3C(=O)c4c(O)cccc4[C@@](C)(O)[C@H]3C[C@@H]12` [Compound 15, Tetracycline], the EC50 in series [1] (setting [4]) was found to be 0.91 ± 0.09 µM. Also, in series [2], the CC50 was over 50 µM.

For the compound `CN(C)CCOc1ccc(/C(=C(/CCCl)c2ccccc2)c2ccccc2)cc1` [Compound 16, Toremifene], the EC50 in series [1] stood at 0.85 ± 0.18 µM. Moreover, the CC50 at 72 h in series [2] turned out to be 44.3 ± 6.8 µM.

`CO[C@H]1C[C@@H]2CC[C@@H](C)[C@@](O)(O2)C(=O)C(=O)N2CCCC[C@H]2C(=O)O[C@H]([C@H](C)C[C@@H]2CC[C@@H](O)[C@H](OC)C2)CC(=O)[C@H](C)/C=C(\C)[C@@H](O)[C@@H](OC)C(=O)[C@H](C)C[C@H](C)/C=C/C=C/C=C/1C` [Compound 17, Rapamycin]: the “Selectivity Index (SI)” value in series [1] was over 65. The EC50 in series [1] (setting [4]) was 0.77 ± 0.3 µM. The compound also came in with a CC50 at 72 h in series [2] of over 50 µM.

Take `COc1cc2c3cc1Oc1c(OC)c(OC)cc4c1[C@@H](Cc1ccc(O)c(c1)Oc1ccc(cc1)C[C@@H]3N(C)CC2)N(C)CC4` [Compound 18, Berbamine]: the “Selectivity Index (SI)” value in series [1] (setting [3]) was 61. Moreover, the EC50 in series [1] (setting [4]) turned out to be 0.74 ± 0.34 µM. The same compound displayed a CC50 in series [2] of 45.3 ± 5.4 µM.

In the case of `CCCCCOc1ccc(-c2ccc(-c3ccc(C(=O)N[C@H]4C[C@@H](O)[C@@H](O)NC(=O)[C@@H]5[C@@H](O)[C@@H](C)CN5C(=O)[C@H]([C@@H](C)O)NC(=O)[C@H]([C@H](O)[C@@H](O)c5ccc(O)cc5)NC(=O)[C@@H]5C[C@@H](O)CN5C(=O)[C@H]([C@@H](C)O)NC4=O)cc3)cc2)cc1` [Compound 19, Anidulafungin] ({pTerphenylCO(4''-OnC5H11)}-[Orn(4R-OH,5R-OH)]T[Hyp][hTyr(3S-OH,4S-OH)]T[Pro(3S-OH,4S-Me)]; lactam 1-C), the “Selectivity Index (SI)” value in series [1] (setting [3]) was found to be 47. The EC50 in series [1] (setting [4]) is 0.83 ± 0.21 µM. In series [2], this compound registered a CC50 of 38.9 ± 15.7 µM.

Take `CCSc1ccc2c(c1)N(CCCN1CCN(C)CC1)c1ccccc1S2` [Compound 21, Thiethylperazine]: the “Selectivity Index (SI)” value in series [1] is given as 37. Besides, in series [1] (setting [4]), the EC50 came out at 0.9 ± 0.11 µM. In series [2], this compound had a CC50 at 72 h of 33.1 ± 6.01 µM.

Consider `COc1cc(NC(=O)Nc2cccc(CNC(=O)O[C@H]3CCOC3)c2)ccc1-c1cnco1` [Compound 24, Merimepodib], for which, in series [1] (setting [4]), the EC50 was determined as 0.78 ± 0.27 µM. This compound came in with a CC50 in series [2] of 26.4 ± 10 µM.

Turning to `C[C@@H]1C[C@@H]([C@H](O)CC2CC(=O)NC(=O)C2)C(=O)[C@@H](C)C1` [Compound 25, Cycloheximide], the EC50 in series [1] (setting [4]) worked out at 0.04 ± 0.02 µM. In series [2], this compound gave a CC50 of 2.48 ± 0.08 µM.

Values taken from publication PMC10328330 (PLOS ONE, 2023).
